Experimental findings from ChEMBL document CHEMBL3286163, “The pterocarpanquinone LQB-118 inhibits tumor cell proliferation by downregulation of c-Myc and cyclins D1 and B1 mRNA and upregulation of p21 cell cycle inhibitor expression” (Bioorg Med Chem, 2014) are described below.

The test system of data set [1] is Thymocyte. Put plainly: Induction of apoptosis in mouse thymocytes assessed as internucleosomal DNA fragmentation at 1 uM after 24 hrs by agarose gel electrophoresis. It is filed as functional, cell-based.
In data set [2] the test system is PC-3. Briefly: Induction of apoptosis in human PC3 cells assessed as proportion of late apoptotic cells at 5 ug/ml after 48 hrs by annexin-V-FITC/propidium iodide staining based flow cytometry (reference value: 6.6 +/- 1.2%). It is filed as functional.
Data set [3] deals with PC-3. Put plainly: Induction of apoptosis in human PC3 cells assessed as proportion of early apoptotic cells at 1.7 ug/ml after 48 hrs by annexin-V-FITC/propidium iodide staining based flow cytometry (reference value: 6.7 +/- 2%). It is filed as functional. For orientation: In flow cytometry, cells or beads pass a laser one at a time.
In data set [4] the test system is PC-3. Put plainly: Decrease in cyclin D1 mRNA expression in human PC3 cells after 48 hrs by RT-PCR analysis. It is filed as functional.
The subject of data set [5] is PC-3. Briefly: Increase in c-Myc mRNA expression in human PC3 cells after 48 hrs by RT-PCR analysis. It is filed as functional.
Data set [6] can be described thus: Cytotoxicity against human RWPE1 cells assessed as inhibition of cell viability after 48 hrs by MTT assay. It is filed as cell-based, RWPE-1. As to conditions: for IC50: Homo sapiens, RWPE-1, 48 h. (In general: Formazan colour is commonly taken as a measure of viable cells.)
For data set [7], the system named is PC-3. Briefly: Induction of apoptosis in human PC3 cells assessed as internucleosomal DNA fragmentation at 5 ug/ml after 48 hrs by agarose gel electrophoresis. It is filed as functional, cell-based.
Data set [8] concerns PC-3. Put plainly: Increase in p21 mRNA expression in human PC3 cells at 5 ug/ml after 24 to 48 hrs by RT-PCR analysis. It is filed as functional, cell-based.
Data set [9] concerns PC-3. Put plainly: Cell cycle arrest in human PC3 cells assessed as cell accumulation at G2/M phase at 5 ug/ml after 48 hrs by propidium idoide staining based flow cytometry (reference value: 22.2%). It is filed as functional.
Data set [10] relates to PC-3. Briefly: Induction of apoptosis in human PC3 cells assessed as proportion of necrotic cells at 5 ug/ml after 48 hrs by annexin-V-FITC/propidium iodide staining based flow cytometry (reference value: 0.8 +/- 0.9%). It is filed as functional.
In data set [11] the test system is PC-3. Briefly: Decrease in cyclin B1 mRNA expression in human PC3 cells after 48 hrs by RT-PCR analysis. It is filed as functional.
Data set [12] concerns LNCaP. Put plainly: Cytotoxicity against human LNCAP cells assessed as inhibition of cell viability after 48 hrs by MTT assay. It is filed as functional, cell-based.
Data set [13] has as its system PC-3. Put plainly: Induction of apoptosis in human PC3 cells assessed as proportion of late apoptotic cells at 1.7 ug/ml after 48 hrs by annexin-V-FITC/propidium iodide staining based flow cytometry (reference value: 6.6 +/- 1.2%). It is filed as functional.
The test system of data set [14] is PC-3. Briefly: Cell cycle arrest in human PC3 cells assessed as cell accumulation at G1 phase at 1.7 ug/ml after 48 hrs by propidium idoide staining based flow cytometry (reference value: 68%). It is filed as functional.
For data set [15], the system named is PC-3. Briefly: Cell cycle arrest in human PC3 cells assessed as cell accumulation at G2/M phase at 1.7 ug/ml after 48 hrs by propidium idoide staining based flow cytometry (reference value: 22.2%). It is filed as functional.
For data set [16], the system named is PC-3. Briefly: Cell cycle arrest in human PC3 cells assessed as cell accumulation at S phase at 1.7 ug/ml after 48 hrs by propidium idoide staining based flow cytometry (reference value: 9.8%). It is filed as functional.
The subject of data set [17] is PC-3. Briefly: Increase in p21 protein expression in human PC3 cells at 5 ug/ml after 48 hrs by flow cytometry. It is filed as functional, cell-based.
Data set [18] concerns PC-3. Put plainly: Cytotoxicity against human PC3 cells assessed as inhibition of cell viability after 48 hrs by MTT assay. It is filed as functional, cell-based. Particulars: for IC50: PC-3, 48 h.
Data set [19] relates to PC-3. Put plainly: Cell cycle arrest in human PC3 cells assessed as cell accumulation at S phase at 5 ug/ml after 48 hrs by propidium idoide staining based flow cytometry (reference value: 9.8%). It is filed as functional.
The test system of data set [20] is PC-3. Briefly: Induction of apoptosis in human PC3 cells assessed as proportion of early apoptotic cells at 5 ug/ml after 48 hrs by annexin-V-FITC/propidium iodide staining based flow cytometry (reference value: 6.7 +/- 2%). It is filed as functional.
Data set [21] concerns PC-3. Briefly: Induction of apoptosis in human PC3 cells assessed as proportion of necrotic cells at 1.7 ug/ml after 48 hrs by annexin-V-FITC/propidium iodide staining based flow cytometry (reference value: 0.8 +/- 0.9%). It is filed as functional.
In data set [22] the test system is PC-3. Briefly: Cell cycle arrest in human PC3 cells assessed as cell accumulation at G1 phase at 5 ug/ml after 48 hrs by propidium idoide staining based flow cytometry (reference value: 68%). It is filed as functional.
For data set [23], the system named is PC-3. Briefly: Cytotoxicity against human PC3 cells assessed as inhibition of cell viability at 1 ug/ml after 48 hrs by MTT assay. It is filed as functional. Particulars: PC-3, 48 h.
For data set [24], the system named is PC-3. Put plainly: Antiproliferative activity against human PC3 cells assessed as inhibition of cell growth at 1.7 ug/ml after 48 hrs by trypan blue dye exclusion assay. Particulars: PC-3, 48 h, read-out: GI. It is filed as functional.
In data set [25] the test system is PC-3. Briefly: Decrease in cyclin B1 mRNA expression in human PC3 cells after 24 hrs by RT-PCR analysis. It is filed as functional.
In data set [26] the test system is PC-3. Briefly: Antiproliferative activity against human PC3 cells assessed as inhibition of cell growth at 1.7 ug/ml after 24 hrs by trypan blue dye exclusion assay. It is filed as functional. As to conditions: PC-3, 24 h, read-out: GI.
In data set [27] the test system is PC-3. Briefly: Decrease in cyclin D1 mRNA expression in human PC3 cells after 24 hrs by RT-PCR analysis. It is filed as functional.
In data set [28] the test system is PC-3. Briefly: Increase in p21 protein expression in human PC3 cells at 5 ug/ml after 24 to 48 hrs by flow cytometry. It is filed as functional, cell-based.
Data set [29] relates to PC-3. Briefly: Cytotoxicity against human PC3 cells assessed as inhibition of cell viability at 10 ug/ml after 48 hrs by MTT assay. It is filed as functional. As to conditions: PC-3, 48 h.
Data set [30] deals with PC-3. Briefly: Decrease in c-Myc mRNA expression in human PC3 cells after 48 hrs by RT-PCR analysis. It is filed as functional.
Data set [31] deals with PC-3. Briefly: Antiproliferative activity against human PC3 cells assessed as inhibition of cell growth at 1.7 ug/ml after 72 hrs by trypan blue dye exclusion assay. It is filed as functional. Particulars: PC-3, 72 h, read-out: GI.
The subject of data set [32] is PC-3. Briefly: Antiproliferative activity against human PC3 cells assessed as inhibition of cell growth at 5 ug/ml after 24 hrs by trypan blue dye exclusion assay. It is filed as functional. Particulars: PC-3, 24 h, read-out: GI.
Data set [33] has as its system PC-3. Briefly: Antiproliferative activity against human PC3 cells assessed as inhibition of cell growth at 5 ug/ml after 72 hrs by trypan blue dye exclusion assay. It is filed as functional. Particulars: PC-3, 72 h, read-out: GI.
The nature of data set [34]: Cytotoxicity against human RWPE1 cells assessed as inhibition of cell viability at 2.5 ug/ml after 48 hrs by MTT assay. It is filed as cell-based. As to conditions: rwpe-1, 48 h.
Data set [35] concerns PC-3. Briefly: Antiproliferative activity against human PC3 cells assessed as inhibition of cell growth at 5 ug/ml after 48 hrs by trypan blue dye exclusion assay. It is filed as functional. Particulars: PC-3, 48 h, read-out: GI.

≈ marks a conversion by molar mass, not a printed value. Calls of active or inactive are those of the source. The rule behind the calls is not given here.

For the compound `C[C@@H]1C[C@H]2[C@@H]3CCC4=CC(=O)C=C[C@]4(C)[C@@]3(F)[C@@H](O)C[C@]2(C)[C@@]1(O)C(=O)CO`, the outcome in data set [1] was Active.
Turning to `CC(=O)O[C@H]1C(=O)[C@@]2(C)[C@H]([C@H](OC(=O)c3ccccc3)[C@]3(O)C[C@H](OC(=O)[C@H](O)[C@@H](NC(=O)c4ccccc4)c4ccccc4)C(C)=C1C3(C)C)[C@]1(OC(C)=O)CO[C@@H]1C[C@@H]2O` [PACLITAXEL], the Activity is on record as 18.4% in data set [2]; 21.1% in data set [3]; 39% in [5]; 79.2% in [9]; 1.9% in data set [10]; 14.7% in data set [13]. The Activity worked out at 25% in data set [14]; 62% in [15]; 13% in data set [16]; 5.8% in data set [19]; 18.1% in [20]; 0.6% in [21]. Moreover, the Activity in [22] turned out to be 15%. The “inhibition (INH)” value in data set [4] worked out at 48%; in data set [11], 44%. The IC50 (in general, the midpoint of a concentration-inhibition curve) came to 0.7 µg/mL (≈ 0.82 µM) in data set [6], 1.7 µg/mL (≈ 1.99 µM) in data set [12] and 2.9 µg/mL (≈ 3.4 µM) in data set [18]. For the same compound, the outcome in [7], in data set [8] and in [17] was Active.
`O=C1C2=C(C(=O)c3ccccc31)[C@H]1Oc3ccccc3[C@H]1CO2` [PTEROCARPANQUINONE]: the inhibition (usually the drop in the measured response relative to a control, in per cent) at 1 µg/mL in data set [23] came to 12.8%. The Activity in data set [2] is recorded as 17.8%; in data set [3], 7.7%; in data set [9] it was 43.4%; in [10], 1.6%; in data set [13], 5.7%; in data set [14] it was 51.8%. Further, the Activity in [15] is listed as 35%; in [16], 13.2%; in data set [19], 22.5%; in data set [34], “Non-toxic”; in data set [20], 48.3%; in data set [21], 0.6%. Also, the Activity in data set [22] is 34.1%. Also, the inhibition of growth at 1.7 µg/mL in data set [24] came to 68%; in [26] it was 60%; in data set [31] it was 60%. The “inhibition (INH)” value in data set [4] is listed as 59%; in [25], 58%; in data set [6] (human, rwpe-1, 48 h), “Dose-dependent effect”; in data set [11] it was 43%; in data set [27], 27%; in [30], 60%. Moreover, the IC50 amounted to 1.3 µg/mL (≈ 4.27 µM) in data set [6], 1.1 µg/mL (≈ 3.61 µM) in data set [12] and 1.7 µg/mL (≈ 5.59 µM) in data set [18]. The outcome in data set [7], in [8] and in data set [28] was Active. Moreover, the inhibition at 10 µg/mL in data set [29] came to 92.7%. Besides, in data set [18], the inhibition entry is “Dose-dependent effect”. Further, the figures for the inhibition of growth at 5 µg/mL in data set [32], in [33] and in data set [35] were 78%, 93% and 88%, respectively.
